# Test results taken from patent US20210379046A1, “Methods of Treating Diseases Using Kinase Modulators” (Memorial Sloan Kettering Cancer Center, priority 2018, published 2021).
# “Also recorded” adds a separate entry of the source.
# Tested on: TT cells
# Assay: Flow cytometry of cell surface HLA on TT cells
# Assay type: cell-based, human
# Conditions: 72 hrs
# Protocol: If adherent cells, they were seeded one day before treatment.
compound,measurement,value
CCN1CCN(Cc2ccc(NC(=O)Nc3ccc(Oc4cc(NC)ncn4)cc3)cc2C(F)(F)F)CC1 [AST487],surface HLA,increased in a AST487 dose-related manner; also recorded: increases in surface HLA
